Reference: patent US6268395A, “Phorbol derivatives having antivirus activity” (Lead Chemical Co., Ltd., priority 1999, dated 2001)
Several values for one entry are separate records, joined by “and”; a condition that tells them apart may be missing. Equal entries are not always repeated. Entries after “also recorded” stand apart in the source; their conditions may differ. Where two headings read alike, the source gives them in different places.

What was measured:
HIV-1 = experiment: Inhibition of HIV-1-induced cytopathic effect (CPE) in MT-4 cells; format: cell-based, HIV-1 (LAV-1) in human MT-4 cells; conditions: for IC100: Human immunodeficiency virus 1, MT4, 120 h; for CPE inhibitory effect (in words): HIV-1; for r = CC0/IC100: 7200 min; for anti-HIV-1 activity: at concentrations up to 500 μg/mL
Experimental: (§1) In the experiments, MT-4 cells were used. The cells were incubated at 37° C. under 5% CO2 in RPMI-1640 medium (FCS, Flow laboratories, North Ryde, Australia) supplemented with 100 μg/mL of streptomycin (Meiji Seika, Tokyo, Japan), and 100 U/mL of penicillin G (Banyu Pharmaceutical, Tokyo, Japan).
HIV-1 was obtained from culture supernatant of MOLT-4 cells that had been persistently infected with LAV-1.
j) Assay of cytopathic effect(CPE) of HIV-1 in MT-4 cells
(§2) The inhibitory effect of test compounds on HIV-1-induced cytopathogenicity was measured by the method of Harada, Koyanagi & Yamamoto (1985). MT-4 cells were infected for 1 hour with HIV-1 (at TCID50 of 0.001/well) and non-adsorbed virus was removed by washing. Then, the cells were resuspended in RPMI-1640 medium at a concentration of 1.5×10^5 cells/mL. A 200 μL/well of the cell suspension was cultured for 5 days in days in a 96-well culture plate containing various concentrations (12 doses, maximum 1,000 μg/mL and minimum […]) of the test compounds. Control assays were performed in the absence of test compounds with HIV-1-infected and uninfected cultures. On day 5, the IC100 of the test compound required for completely preventing HIV-1-induced CPE(IC) was determined through an optical microscope and the cell growth was examined to give the CC0 that reduces the viability of MT-4 cells.
A variety of phorbol esters and related compounds were tested for their ability to inhibit the replication and infectivity of HIV-1 in MT-4 cells, a human CD4-positive cell line continually infected with HTLV-1, and the results are presented in Table 3.

[1] = Cell growth / viability of MT-4 cells (cytotoxicity); format: cell-based; conditions: human, day 5, read-out: CC0 (concentration that reduces viability of MT-4 cells; minimum cytotoxic concentration)
Experimental: as §1, §2

protein kinase C (PKC) = format: biochemical, mouse; conditions: for % Activity of PKC: relative to TPA positive control; for PKC activation, positive control: TPA, lipid and calcium chloride present; for activation of PKC (in words): concentration not given
Experimental: After addition of 0.55 nM [γ-^32 P] ATP (50×10^3 cpm/nmol), the reaction mixture was mixed and allowed to be kept at 37° C. for 30 minutes. Then the reactions were terminated by the addition of 10 μl of ice-cold stop reagent. Aliquots of 35 μL were transferred to the center of peptide binding discs. After 10 minutes, the discs were washed two times with 75 mM orthophosphoric acid. The activity of ^32 P-labeled samples was counted in 10/mL of a scintillation fluid for 1 minute. […] Blank (in the absence of PKC) and control (in the absence of TPA or tested samples) were also carried out. One unit of PKC was defined as that amount of enzyme, which incorporated 1 nmol of phosphate from ATP into its substrate, peptide, per minute under the assay conditions, described above.

[2] = MT-4 cells, 5 days, NE: Not effective, read-out: Anti-HIV-1 IC100 (complete prevention of HIV-1-induced CPE)
[3] = 10 ng/mL (standard concentration)
[4] = MT-4 cells, 5 days, NE: Not effective

| SMILES | IC100 (HIV-1; [2]) [µg/mL] | IC100 (HIV-1; MT-4 cells, read-out: IC100 (complete inhibition of CPE)) [µg/mL] | CPE inhibitory effect (in words) (HIV-1; MT-4 cells) | r = CC0/IC100 (HIV-1; MT-4 cells) | MCC at 120 h [1] [µg/mL] | % Activity of PKC (protein kinase C (PKC); 10 ng/mL) | % Activity of PKC (protein kinase C (PKC); 2.7 μg/mL) | PKC activation, positive control (protein kinase C (PKC)) [%] | PKC activation, positive control (protein kinase C (PKC); represents 100%) [nmol/mg/min] | anti-HIV-1 activity (HIV-1) | activation of PKC (in words) (protein kinase C (PKC)) | PKC activation (in words) (protein kinase C (PKC); [3]) | Anti-HIV-1 IC100 (complete prevention of HIV-1-induced CPE) (HIV-1; [4]) [µg/mL] | IC100 (HIV-1; read-out: Anti-HIV-1 IC100 (complete prevention of HIV-1-induced CPE)) [µg/mL] | PKC activation (in words) (protein kinase C (PKC); 10 ng to 2.7 μg/mL) | enhancement of CPE inhibitory activity (HIV-1; relative to compound 1) [times] | PKC activation (in words) (protein kinase C (PKC); high concentrations) |
| --- | --- | --- | --- | --- | --- | --- | --- | --- | --- | --- | --- | --- | --- | --- | --- | --- | --- |
| CCCCCCCCCCCCCC(=O)O[C@@H]1[C@@H](C)[C@@]2(O)[C@@H](C=C(CO)C[C@]3(O)C(=O)C(C)=C[C@@H]23)[C@@H]2C(C)(C)[C@]12OC(C)=O [Compound 8, reference compound] | 0.00048 | 0.00048 | equipotent | 65200 | 31.3 | 96% and ~100% | 98% and ~100% | 100 | 8400 | – | – | – | – | – | – | – | – |
| CC1=C[C@H]2[C@@]3(O)[C@H](C)[C@@H](O)[C@]4(O)[C@H]([C@@H]3C=C(CO)C[C@]2(O)C1=O)C4(C)C [Compound 9, Phorbol] | – | – | did not show CPE inhibitory effect; also recorded: showed no effect | – | 1000 | 8% | 39% | – | – | did not show anti-HIV-1 activity | weak activators of PKC | – | – | – | – | – | – |
| CC(=O)O[C@@]12[C@H](O)[C@@H](C)[C@@]3(O)[C@@H](C=C(CO)C[C@]4(O)C(=O)C(C)=C[C@@H]34)[C@@H]1C2(C)C [Compound 10, 13-O-Acetylphorbol] | 125 | – | – | > 8.00 | > 1000 | 0% | 14% | – | – | – | – | did not activate PKC | – | – | – | – | – |
| CC(=O)OCC1=C[C@H]2[C@@H]3C(C)(C)[C@]3(OC(C)=O)[C@H](OC(C)=O)[C@@H](C)[C@]2(O)[C@@H]2C=C(C)C(=O)[C@@]2(O)C1 [Compound 11, Phorbol-12,13,20-triacetate] | 62.5 | – | – | 2.00 | 125 | 0% | 15% | – | – | – | – | did not activate PKC | – | – | – | – | – |
| CC1=C[C@H]2[C@@]3(O)[C@H](C)[C@@H](OC(=O)c4ccccc4)[C@]4(OC(=O)c5ccccc5)[C@H]([C@@H]3C=C(COC(=O)c3ccccc3)C[C@]2(O)C1=O)C4(C)C [Compound 12, Phorbol-12,13,20-tribenzoate] | – | – | showed no effect | – | 31.3 | – | 100% | – | – | did not show anti-HIV-1 activity | enhanced the activation of PKC | – | – | – | – | – | – |
| CCCCC/C=C\C/C=C\CCCCCCCC(=O)OCC1=C[C@H]2[C@@H]3C(C)(C)[C@]3(OC(C)=O)[C@H](OC(C)=O)[C@@H](C)[C@]2(O)[C@@H]2C=C(C)C(=O)[C@@]2(O)C1 [Compound 13, Phorbol-12,13-diacetate-20-linoleate] | 7.81 | – | Enhancement of the anti-HIV activity | 8.00 | 62.5 | 0% | 44% | – | – | – | without an increase in the activity of PKC | – | 7.8 | – | – | – | – |
| CCCCCCCCCCCCCC(=O)O[C@@H]1[C@@H](C)[C@@]2(O)[C@@H](C=C(COC(C)=O)C[C@]3(O)C(=O)C(C)=C[C@@H]23)[C@@H]2C(C)(C)[C@]12OC(C)=O [Compound 14, 12-O-Tetradecanoylphorbol-13,20-diacetate] | 15.6 | – | dramatically decreased | 4.01 | 62.5 | 0% | 30% | – | – | – | dramatically decreased | – | – | – | – | – | – |
| CC(=O)OCC1=C[C@H]2[C@@H]3C(C)(C)[C@]3(OC(C)=O)[C@H](OC(C)=O)[C@@H](C)[C@]2(O)[C@@H]2C=C(C)[C@H](O)[C@@]2(O)C1 [Compound 15, 3-Deoxo-3β-hydroxyphorbol-12,13,20-triacetate] | – | – | loss of CPE inhibitory effect | 2.00 | 1000 | 0% | 26% | – | – | – | – | – | – | 500 | – | – | – |
| CO[C@]12CC(COC(C)=O)=C[C@H]3[C@@H]4C(C)(C)[C@]4(OC(C)=O)[C@H](OC(C)=O)[C@@H](C)[C@]3(O)[C@@H]1C=C(C)C2=O [Compound 16, 4-O-Methylphorbol-12,13,20-triacetate] | 31.3 | – | increased in the CPE inhibitory effect | 3.99 | 125 | 0% | 0% | – | – | – | no activation of PKC | – | – | – | no activation | – | – |
| CC(=O)OCC1=C[C@H]2[C@@H]3C(C)(C)[C@]3(OC(C)=O)[C@H](OC(C)=O)[C@@H](C)[C@]2(OC(C)=O)[C@@H]2C=C(C)C(=O)[C@@]2(OC(C)=O)C1 [Compound 17, Phorbol-4,9,12,13,20-pentaacetate] | 125 | – | – | 2.00 | 250 | 0% | – | – | – | – | – | did not activate PKC | – | – | – | – | – |
| C=C(C)C1C(OC(C)=O)=CC(C)C2(O)C1C=C(COC(=O)CCCCCCC/C=C\C/C=C\CCCCC)CC1(O)C(=O)C(C)=CC12 (stereo not shown) [Compound 18, 13-O-Acetylcrotophorbolone-enol-20-linoleate] | 7.81 | – | – | 16.0 | 125 | 24% | 24% | – | – | – | – | – | 7.8 | – | – | 2 | – |
| CC1=C[C@H]2[C@@]3(O)[C@H](C)[C@@H](O)[C@]4(O)[C@H]([C@@H]3C=C(CO)C[C@@]2(O)C1=O)C4(C)C [Compound 19, 4α-Phorbol] | – | – | did not show CPE inhibitory effect; also recorded: showed no effect | – | 500 | 1% | 5% | – | – | did not show anti-HIV-1 activity | weak activators of PKC | – | – | – | – | – | – |
| CC1=C[C@@H]2[C@@H](CC(CO)=C[C@H]3[C@@H]4C(C)(C)[C@]4(O)[C@H](O)[C@@H](C)[C@]23O)C1=O [Compound 20, 4-Deoxy-4α-phorbol] | – | – | did not show CPE inhibitory effect; also recorded: showed no effect | – | 500 | 0% | 25% | – | – | did not show anti-HIV-1 activity | weak activators of PKC | – | – | – | – | – | – |
| CC(=O)OCC1=C[C@H]2[C@@H]3C(C)(C)[C@]3(OC(C)=O)[C@H](OC(C)=O)[C@@H](C)[C@]2(O)[C@@H]2C=C(C)C(=O)[C@]2(O)C1 [Compound 21, 4α-Phorbol-12,13,20-triacetate] | 250 | – | – | 2.00 | 500 | 0% | 39% | – | – | – | – | – | – | – | – | – | enhanced activation of PKC |
| CCCC(=O)OCC1=C[C@H]2[C@@H]3C(C)(C)[C@]3(OC(=O)CCC)[C@H](OC(=O)CCC)[C@@H](C)[C@]2(O)[C@@H]2C=C(C)C(=O)[C@]2(O)C1 [Compound 22, 4α-Phorbol-12,13,20-tributyrate] | – | – | showed no effect | – | 62.5 | 0% | 0% | – | – | did not show anti-HIV-1 activity | – | – | – | – | no activation | – | – |
